Patent US9359399B2, “Synthetic peptide amides” (Cara Therapeutics, Inc., priority 2006, dated 2016)

Experiments:
[1] = tested on: mechanical hypersensitivity induced by L5/L6 spinal nerve ligation in rats; assay: Spinal nerve ligation (SNL) model of neuropathic pain; assay type: in vivo, rat; details: intravenous route
Protocol: The SNL model (Kim and Chung 1992) was used to induce chronic neuropathic pain. The rats were anesthetized with isoflurane, the left L5 transverse process was removed, and the L5 and L6 spinal nerves were tightly ligated with 6-0 silk suture. The wound was then closed with internal sutures and external staples. Fourteen days following SNL, baseline, post-injury and post-treatment values for non-noxious mechanical sensitivity were evaluated using 8 Semmes-Weinstein filaments (Stoelting, Wood Dale, Ill., USA) with varying stiffness (0.4, 0.7, 1.2, 2.0, 3.6, 5.5, 8.5, and 15 g) according to the up-down method (Chaplan et al. 1994). Animals were placed on a perforated metallic platform and allowed to acclimate to their surroundings for a minimum of 30 minutes before testing. The mean and standard error of the mean (SEM) were determined for each paw in each treatment group. Since this stimulus is normally not considered painful, significant injury-induced increases in responsiveness in this test are interpreted as a measure of mechanical allodynia. […] Compound (2) was administered by the intravenous route. FIG. 10 summarizes the results of these experiments.

[2] = tested on: pruritus induced by GNTI in mice; assay: Pruritus model in mice, GNTI-induced scratching; assay type: in vivo, Swiss Webster mice; details: inhibition of scratching
Protocol: (§1) Groups of 10 (and in one case, 11) male Swiss Webster mice (25-30 g) were used. Each animal was weighed and allowed to acclimate for at least one hour in individual, rectangular observation boxes. The tails of mice were immersed for 30 seconds in warm water to dilate tail veins and the animals then received an intravenous injection of either vehicle (saline) or compound (2) (0.01, 0.03, 0.10 and 0.30 mg of free base/kg). Fifteen minutes later, each mouse was given either GNTI dihydrochloride (Tocris) (0.30 mg/kg; 0.25 ml/25 g) or compound 48/80 (Sigma) (50 μg in 0.10 ml saline) subcutaneously behind the neck. The animals were then observed in pairs (occasionally in threes) and the number of hind leg scratching movements directed at the neck was counted for 30 minutes. […]

[3] = tested on: pancreatitis-induced abdominal hypersensitivity in rats; assay: Rat pancreatitis model (dibutylin dichloride), abdominal hypersensitivity; assay type: in vivo; details: intraperitoneal route
Protocol: Chronic pancreatic inflammation was induced in rats by intravenous administration of dibutylin dichloride (DBTC, Aldrich Milwaukee, Wis.) dissolved in 100% ethanol at a dose of 8 mg/kg under isofluorane anesthesia (2-3 liters/min, 4%/vol until anesthetized, then 2.5%/vol throughout the procedure. Control animals received the same volume of vehicle (100% ethanol) alone. Pancreatitis pain was assessed by determination of abdominal sensitivity to probing the abdomen of rats with a calibrated von Frey filament (4 g). Rats were allowed to acclimate in suspended wire-mesh cages for 30 min before testing. A response was indicated by the sharp withdrawal of the abdomen, licking of abdominal area, or whole body withdrawal. […] The mean occurrence of withdrawal events in each trial is expressed as the number of responses to 10 applications. Rats without inflammation of the pancreas typically display withdrawal frequencies to probing with von Frey filament of 0-1. The animals were allowed to recover for 6 days after DBTC administration prior to any pharmacological manipulations.
The number of positive responses, following abdominal probing (out of a possible 10), were recorded at each time point. […] Raw data were analyzed using a two-way repeated measures ANOVA followed by Bonferroni post-tests. […]

[4] = tested on: acetic acid-induced writhing in mice; assay: Acetic acid-induced writhing assay in mice; assay type: in vivo, ICR mice; details: mice
Protocol: 12: 525-562; Ramabadran and Bansinath (1986) Pharm. Res. 3: 263-270]. Intraperitoneal administration of dilute acetic acid solution causes a writhing behavior in mice. A writhe is defined as a contraction of the abdominal muscles accompanied by an extension of the forelimbs and elongation of the body. The number of writhes observed in the presence and absence of test compounds is counted to determine the analgesic activity of the compounds.
Each day a writhing assay was performed, a vehicle control group of mice (n=6-8) that were treated identically to the test group (except that test compound was omitted from the injection dose) was always included and the average total number of writhes in this group used as the absolute reference point defining 0% decrease in pain perception for all other mice receiving a test compound on that day. Specifically, the total number of writhes of each mouse receiving the test compound was converted to % decrease in pain perception according to the following equation:
[formula] Where Wv is the mean number of writhes in vehicle-treated group and Wc is the number of writhes in compound-treated mouse.
Male ICR mice, 23-37 grams in weight, were weighed and placed in individual observation chambers (usually a 4000 ml glass beaker) with a fine layer of SANI-CHIPS rodent bedding at the bottom. […] After administration of the compound or vehicle control, mice were returned to their individual observation chambers awaiting the intraperitoneal administration of acetic acid solution. […] and acetic acid injection, a dose corresponding to 10 ml/kg of a 0.6% (v/v) acetic acid solution was then injected into the right lower quadrant of the abdomen. Immediately after the injection, the mouse was returned to its observation chamber and the recording of the number of writhes begun immediately. The number of writhes was counted over a 15-min period starting from the time of acetic acid injection, the data being collected over three separate 5 minute time periods (0-5 min, 5-10 min, and 10-15 min).
The data were reported as ED50, and Hill coefficient. […] The Hill coefficient is expressed as the arithmetic mean±sem calculated from the values obtained from the animals.
For dose-response analysis, raw data were converted to % maximum possible effect (% MPE) using the formula: % MPE=((test score−vehicle-treated score)/(0−vehicle-treated score))*100. Raw data were analyzed using a one-way ANOVA followed by Dunnett's post-tests. […] Compounds were administered by the intravenous route.

[5] = tested on: capsaicin-induced ocular pain; assay: Capsaicin-induced ocular pain, palpebral opening in rabbits; assay type: in vivo, albino New Zealand strain rabbits; details: 10-30 min. post capsaicin
[6] = tested on: pruritus induced by compound 48/80 in mice; assay: Pruritus model in mice, compound 48/80-induced scratching; assay type: in vivo, Swiss Webster mice; details: inhibition of scratching
Protocol: as §1

SMILES: CC(C)C[C@@H](NC(=O)[C@@H](Cc1ccccc1)NC(=O)[C@H](N)Cc1ccccc1)C(=O)N[C@H](CCCCN)C(=O)N1CCC(N)(C(=O)O)CC1 [Compound (2), D-Phe-D-Phe-D-Leu-D-Lys-[ω(4-aminopiperidine-4-carboxylic acid)]-OH]
- ED50, attenuation of mechanical hypersensitivity (SNL model) [1]: 0.38 mg/kg
- GNTI Model ED50 (mg/kg, iv, 15 min post-dose) [2]: 0.05 (0.02-0.1) mg/kg
- ED50, attenuation of abdominal hypersensitivity (pancreatitis model) [3]: 0.03 mg/kg
- dose response in the acetic acid-induced writhing model ([4]; intravenously, 0.01 mg/kg to 0.3 mg/kg): linear dose response relationship
- ED50 (mg/kg, iv, 15 min post-dose) ([4]; iv, 15 min post-dose): 0.07 mg/kg
- % MPE (180 min post-ED90) ([4]; iv, 180 min post-ED90): 77 ± 5% MPE
- % MPE (240 min post-ED90) ([4]; iv, 240 min post-ED90): 81 ± 4% MPE
- % MPE (300 min post-ED90) ([4]; iv, 300 min post-ED90): 84 ± 4% MPE
- Mean palpebral opening (% Control) ([5]; Table VII, 10 mg/ml, five animals): 82.7 % Control
- Mean palpebral opening (% Control) ([5]; Table VIII, 1 mg/ml, ten animals): 60.5 % Control
- Mean palpebral opening (% Control) ([5]; Table VIII, 10 mg/ml, ten animals): 56.6 % Control
- Mean palpebral opening (% Control) ([5]; Table VIII, 25 mg/ml, ten animals): 75.5 % Control
- Mean palpebral opening (% Control) ([5]; Table VIII, 50 mg/ml, ten animals): 87.5 % Control
- Compound 48/80 Model ED50 (mg/kg, iv, 15 min post-dose) [6]: 0.08 (0.04-0.2) mg/kg
